Data as given in the OPERA property sets (Mansouri et al. 2018).
Where a SMILES comes first, the peptide text is derived from it. [ ]: non-standard residue; d: D form. ξ: configuration not given here. ξW = NC(Cc1c[nH]c2ccccc12)C(=O)O

| SMILES | logP |
| --- | --- |
| CCOC(=O)C(C)(Cc1cccc2ccccc12)S(=O)(=O)c1ccc([N+](=O)[O-])cc1 (configuration not stated) | 4.4 |
| CC(=O)C(=Cc1cc(O)c(O)c([N+](=O)[O-])c1)C(C)=O | 1.21 |
| CN(C)CCOc1ccc(Cl)cc1 | 3.05 |
| CC(C)CCNc1ncnc2nc[nH]c12 | 2.51 |
| CC(C)n1cccc(O)c1=O | 0.79 |
| CC(C)CC(N)C(=O)NC(CC(C)C)C(=O)NC(CC(C)C)C(=O)NC(Cc1ccccc1)C(=O)O (configuration not stated) (H-LLLF-OH; configuration not given here) | 0.24 |
| S=C=NC(c1ccccc1)c1ccccc1 | 5.09 |
| CCCCNc1ccncc1S(=O)(=O)NC(=NC#N)NC(C)C | 1.05 |
| CN1CCN(Cc2cnccc2Cl)C1=N[N+](=O)[O-] | 0.26 |
| Cc1ccc(Br)cc1F | 3.64 |
| COc1cc2ccncc2cc1OC | 1.68 |
| CN(c1nc2ccccc2s1)C1CCN(CCCCOc2ccc(F)cc2)CC1 | 5.37 |
| Cc1c(O)c(=O)ccn1CCCOC(=O)c1ccc(O)cc1 | 0.8 |
| CC(C)NCC(O)c1ccc([N+](=O)[O-])cc1 (configuration not stated) | 1.28 |
| CC(=O)OC(C)(C)C1CCC2(C)CCCC3(CO3)C2C1 (configuration not stated) | 4.08 |
| Cc1oc2cc3oc(=O)cc(C)c3cc2c1C | 3.22 |
| CCC(C)C(N)C(=O)NC(C(=O)NC(C(=O)NC(C(=O)NCC(=O)O)C(C)CC)C(C)CC)C(C)CC (configuration not stated) (H-IIIIG-OH; configuration not given here) | -0.97 |
| COc1ccc(CCNCC(O)COc2ccc(Cc3nc(C)c[nH]3)cc2)cc1OC (configuration not stated) | 2.5 |
| CCNc1nc(O)nc(NC(C)(C)C)n1 | 3.53 |
| CCNC(=S)NN=C(c1cccc([N+](=O)[O-])c1)c1ccccn1 | 2.53 |
| NC(=O)c1cccc(Cn2cnc3ccccc32)c1 | 1.7 |
| Nc1nc(N)c2c(S(=O)(=O)c3ccccc3)cccc2n1 | 2.14 |

| SMILES | logP |
| --- | --- |
| CCOCCCNc1[nH]cnc2ncnc1-2 | 1.15 |
| O=C1c2ccccc2-c2cc([N+](=O)[O-])ccc21 | 3.06 |
| CCCC(=NOCC)C1=C(O)CC2(CCCC3CCCCC32)OC1=O (configuration not stated) | 5 |
| CCOC(=O)c1cn2c(C)c(C)nc2c2c1CCC(c1ccccc1)O2 (configuration not stated) | 5.5 |
| Cc1[nH]c2ccccc2c1Cc1n[nH]c(=S)n1-c1ccccc1 | 2.55 |
| NC1=NCC(CN2CC=CCC2)O1 (configuration not stated) | 0.19 |
| CC(=O)c1cc(F)c(Cl)cc1Cl | 3.4 |
| CCCCCCNC1=NS(=O)N=C1NCCSCc1ccc(CN(C)C)o1 (configuration not stated) | 3.46 |
| CC(C)(C)c1ccc(C(CCN2CCCC2)c2ccccc2)cc1 (configuration not stated) | 6.72 |
| CN1CCN(CCn2nc3ccccc3n2)CC1 | 0.74 |
| CCCNC(=O)Cn1cccc(O)c1=O | -0.24 |
| C1CCSC1 | 1.61 |
| COC(=O)C(C)NP(=O)(OCC1C=CC(n2cc(C)c(=O)[nH]c2=O)O1)Oc1cccc(Cl)c1 (configuration not stated) | 1.42 |
| NCC(=O)NC(Cc1c[nH]c2ccccc12)C(N)=O (configuration not stated) (H-Gly-[ξW]-NH2) | -0.48 |
| O=C1C=C(N2CCCC2)C(=O)N1c1ccc(F)cc1 | 2.3 |
| O=C1Nc2ccc3cc4ccccc4nc3c2CO1 | 1.64 |
| CC(NC(=O)C(N)Cc1c[nH]c2ccccc12)C(=O)NC(C(N)=O)C(C)C (stereo not drawn) (H-Trp-Ala-Val-NH2; configuration not given here) | 0.4 |
| CCOP(=O)(OCC)C(C)(C)[N+]([O-])=Cc1ccccn1 | 0.68 |
| C[N+](C)([O-])CCCCc1ccccc1 | 0.46 |
| O=C1C(O)N=C(c2ccccc2)c2cc(Cl)ccc2N1CCO (configuration not stated) | 1.53 |
| CON=C(C(=O)NC1C(=O)N2C(C(C)OC(=O)OC3CCCCC3)=CCSC12)c1csc(N)n1 (configuration not stated) | 2.52 |
| CCCC(=NOCC)C1=C(O)CC(c2ccccc2)(c2ccccc2)OC1=O | 4.75 |

| SMILES | logP |
| --- | --- |
| Cc1cn(C2C=CC(COP3(=O)OCc4cc([N+](=O)[O-])ccc4O3)O2)c(=O)[nH]c1=O (configuration not stated) | 0.18 |
| Cc1c(O)c(=O)ccn1CCCOC(=O)c1ccccn1 | -0.18 |
| Cc1c2occc2cc2ccc(=O)oc12 | 2.48 |
| COc1ccc2cc(C(C)C(=O)OCCOC(C)=O)ccc2c1 (configuration not stated) | 3.5 |
| C=CCC(C)(C(=O)OCC)S(=O)(=O)c1ccc([N+](=O)[O-])cc1 (configuration not stated) | 2.3 |
| O=C(CCCN=C=S)c1cccnc1 | 1.79 |
| COc1nc(C)nc(Cl)c1NC1=NCCN1 | 0.9 |
| COCCNC(=O)c1c(C)nc2c3c(c(C(=O)N(C)C)cn12)CCC(c1ccccc1)O3 (configuration not stated) | 2.15 |
| CNC(=S)NN=C(c1cccc([N+](=O)[O-])c1)c1ccccn1 | 2.14 |
| Clc1nc(-c2ccccc2)nc2ccccc12 | 4.47 |
| CN1CC(O)N(C(=O)NC2CCCCC2)C1=O (configuration not stated) | 1.87 |
| CC(C)(C)c1ccc(OCC2CN=C(N)O2)cc1 (configuration not stated) | 2.84 |
| CCOc1cc2ncnc(Nc3cc(F)cc(C(F)(F)F)c3)c2cc1OCC | 5.49 |
| Clc1cc(Cl)c2c(oc3c(Cl)ccc(Cl)c32)c1Cl | 6.34 |
| CCC(C)C(N)C(=O)NC(C(=O)NC(C(=O)O)C(C)O)C(C)CC (stereo not drawn) (H-Ile-Ile-Thr-OH; configuration not given here) | -2.23 |
| Cc1cc2ccc3occc3c2oc1=O | 2.57 |
| O=Cc1ccc(Cl)cc1O | 2.49 |
| CC12CC(Cl)(Cl)C(CC1(Cl)Cl)C2(CCl)C(Cl)Cl (configuration not stated) | 5.49 |
| CCCCN(CCCC)C1CCc2c(OC)cccc2C1C (configuration not stated) | 5.61 |
| Cc1cccc(N2CC(N3CCOCC3)=CC2=O)c1 | 1.5 |
| CSCCC(N)C(=O)NC(CC(C)C)C(=O)O (stereo not drawn) (H-Met-Leu-OH; configuration not given here) | -1.84 |
| Clc1ccc(-c2noc(N3CCOCC3)n2)cc1 | 3.1 |

| SMILES | logP |
| --- | --- |
| Cc1nc2c3c(c(C(=O)NC4CCC4)cn2c1C)CCC(c1ccccc1)O3 (configuration not stated) | 4.5 |
| CCC(=O)[C@@]1(C)CC[C@H]2[C@@H]3CCC4=CC(=O)CCC4=C3CC[C@@]21C | 4.04 |
| CCC(CC)(C(=O)OC)S(=O)(=O)c1ccc([N+](=O)[O-])cc1 | 2.24 |
| Cc1ccc(CO)c(C=NNC(=O)c2cccc(F)c2)c1O | 3.41 |
| CON(C)C(=O)Nc1cccc(CO)c1 | 0.62 |
| COc1ccc(C=C2C(=O)NC(=S)NC2=O)cc1 | 0.76 |
| CCCCCCCCNC1=NS(=O)N=C1NCCSCc1ccc(CN(C)C)o1 (configuration not stated) | 4.47 |
| O=C1CNC(=O)C(Cc2c[nH]c3ccccc23)N1 (configuration not stated) | 0.07 |
| CNCCC=Cc1cccnc1 | 1.13 |
| CC(N)C(=O)NC(Cc1ccccc1)C(=O)NCC(=O)NC(C(=O)NC(Cc1ccccc1)C(=O)O)C(C)C (configuration not stated) (H-AFGVF-OH; configuration not given here) | -0.59 |
| CC1(C)C=[N+]([O-])C(C)(C)C1 | -0.15 |
| Cc1nc2ccccc2c(=O)n1CC(=O)NCc1ccccc1 | 1.78 |
| C=C(C)CC(C)(CCC=C(C)C)OC(C)=O (configuration not stated) | 4.36 |
| CC(C)CC(NC(=O)C(N)Cc1ccc(O)cc1)C(=O)O (stereo not drawn) (H-Tyr-Leu-OH; configuration not given here) | -1.75 |
| Cc1ccc(O)cc1N | 1.16 |
| CC(C)c1cccc(C(C)C)c1NC(=O)CC(=O)C1(c2ccccc2)CCCC1 | 4.55 |
| CCOc1ccc(NC(=O)OC(C)c2ccccc2)cc1OCC (configuration not stated) | 3.56 |
| CCNC(=S)NS(=O)(=O)c1cnccc1NC1CCCCCCC1 | 3.86 |
| CN(C)CCOc1c(Cl)cccc1Cl | 2.57 |
| CCC(C)C(NC(=O)C(CCCNC(=N)N)NC(C)=O)C(=O)NC(Cc1ccccc1)C(N)=O (stereo not drawn) (Ac-Arg-Ile-Phe-NH2; configuration not given here) | -0.04 |
| CCCCCCNC(=O)N1C(=O)N(C)CC1O (configuration not stated) | 2.39 |
